From patent publication US20130143929A1, “FUNGICIDAL IMIDAZOLES” (EI DU PONT DE NEMOURS AND COMPANY, priority 2010, published 2013)
Marks after values point to notes of the source that are not given here.

Columns and labels:
Type in all cases: in vivo
[1] = test system: Blumeria graminis f. sp. tritici (also known as Erysiphe graminis f. sp. tritici, the causal agent of wheat powdery mildew); experiment: Test D: wheat powdery mildew, preventive spray on wheat seedlings, visual disease rating; conditions: wheat powdery mildew, preventive spray on wheat seedlings; asterisk: 40 ppm test suspension
Outline: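 Preventive test: seedlings sprayed to run-off and inoculated with powdery mildew spores one day later. Suspensions were made in 50/50 acetone/water with 250 ppm Trem 014 surfactant (200 ppm equals 800 g/ha). Visual ratings after 8 days at 20 °C give percent disease control versus controls.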

[2] = test system: Septoria tritici (the causal agent of wheat leaf blotch); experiment: Test B: wheat leaf blotch, preventive spray on wheat seedlings, visual disease rating; conditions: wheat leaf blotch, preventive spray on wheat seedlings; asterisk: 40 ppm test suspension
Outline: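 Preventive test: Septoria tritici spores applied one day after run-off spraying of seedlings (200 ppm equals 800 g/ha; some tests 40 ppm). After 48 h at 24 °C saturated atmosphere and 19 days at 20 °C, disease scored visually as % control relative to untreated plants.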

[3] = test system: Puccinia recondite f. sp. tritici (the causal agent of wheat leaf rust); experiment: Test A: wheat leaf rust, preventive spray on wheat seedlings, visual disease rating; conditions: wheat leaf rust, preventive spray on wheat seedlings; asterisk: 40 ppm test suspension
Outline: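 This was a preventive test: Puccinia recondite f. sp. tritici inoculum was applied one day after compound spray to run-off. Test suspensions were made in 50/50 acetone/water with 250 ppm surfactant, at 200 ppm (800 g/ha equivalent) or 40 ppm. Visual ratings of % disease control relative to controls were made after 24 h of saturated humidity and 7 growth-chamber days, all at 20° C.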

[4] = test system: Botrytis cinerea (the causal agent of tomato Botrytis); experiment: Test C: tomato Botrytis, preventive spray on tomato seedlings, visual disease rating; conditions: tomato Botrytis, preventive spray on tomato seedlings; asterisk: 40 ppm test suspension
Outline: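 Preventive test: B. cinerea spore inoculation one day after tomato seedlings were sprayed to run-off with compound suspended in 50/50 acetone–water plus 250 ppm surfactant. Plants held 48 h at 20° C in saturated air, then 3 days at 24° C; visual ratings scored 100 (full control) to 0 versus controls; some entries used 40 ppm.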

SMILES | Test D rating (100 = 100% disease control, 0 = no disease control relative to the controls) [1] | Test B rating (100 = 100% disease control, 0 = no disease control relative to the controls) [2] | Test A rating (100 = 100% disease control, 0 = no disease control relative to the controls) [3] | Test C rating (100 = 100% disease control, 0 = no disease control relative to the controls) [4]
Cc1cccc(Cl)c1-n1c(C)nc(Cl)c1C(O)c1ccc(F)cc1F (stereo not drawn) [compound 320] | 79* % | 100* % | 99* % | 96* %
Cc1ncc(C(O)c2ccc(F)cc2F)n1-c1ccc(F)cc1Br (stereo not drawn) [compound 321] | 0* % | 0* % | 0* % | 0* %
COc1cc(F)c(C(O)c2cnc(C)n2-c2ccc(F)cc2Br)c(F)c1 (stereo not drawn) [compound 322] | 0* % | 2* % | 28* % | 0* %
COc1cc(F)c(C(O)c2c(Br)nc(C)n2-c2ccc(F)cc2Br)c(F)c1 (stereo not drawn) [compound 323] | 99* % | 100* % | 100* % | 100* %
COc1ccc(C(O)c2c(Br)nc(C)n2-c2ccc(F)cc2Br)c(Cl)c1 (stereo not drawn) [compound 324] | 69* % | 94* % | 100* % | 80* %
COc1cc(F)c(C(O)c2c(Cl)nc(C)n2-c2ccc(F)cc2Br)c(F)c1 (stereo not drawn) [compound 325] | 92* % | 98* % | 100* % | 100* %
Cc1nc(Br)c(C(O)c2ccc(C#N)cc2F)n1-c1ccc(F)cc1Br (stereo not drawn) [compound 326] | 0* % | 90* % | 99* % | 30* %
COc1ccc(-n2c(Cl)nc(Cl)c2C(O)c2c(F)cc(F)cc2F)c(F)c1 (stereo not drawn) [compound 327] | 29* % | 100* % | 100* % | 100* %
COc1ccc(-n2c(Cl)nc(Cl)c2C(O)c2ccc(F)cc2F)c(F)c1 (stereo not drawn) [compound 328] | 64* % | 100* % | 100* % | 100* %
Cc1nc(Cl)n(-c2c(F)cccc2Cl)c1C(O)c1ccc(F)cc1F (stereo not drawn) [compound 332] | 92* % | 100* % | 100* % | 99* %
COc1ccc(C(O)c2c(Cl)nc(C)n2-c2ccc(F)cc2Br)c(Cl)c1 (stereo not drawn) [compound 333] | 86* % | 72* % | 95* % | 99* %
Cc1nc(Br)c(C(O)c2ccc(F)cc2F)n1-c1ccc(F)cc1Br (stereo not drawn) [compound 334] | 64* % | 100* % | 99* % | 99* %
Cc1cccc(Br)c1-n1c(C)nc(Br)c1C(O)c1ccc(F)cc1Cl (stereo not drawn) [compound 335] | 64* % | 86* % | 98* % | 35* %
Cc1cccc(Br)c1-n1c(C)nc(Cl)c1C(O)c1ccc(F)cc1Cl (stereo not drawn) [compound 336] | 90* % | 89* % | 97* % | 72* %
Cc1cccc(Br)c1-n1c(C)nc(Br)c1C(O)c1ccc(F)cc1F (stereo not drawn) [compound 337] | 0* % | 86* % | 86* % | 71* %
Cc1cccc(Br)c1-n1c(C)nc(Cl)c1C(O)c1ccc(F)cc1F (stereo not drawn) [compound 338] | 56* % | 93* % | 94* % | 70* %
Cc1cccc(F)c1-n1c(C)nc(Cl)c1C(O)c1ccc(F)cc1F (stereo not drawn) [compound 339] | 76* % | 98* % | 98* % | 86* %
Cc1cccc(F)c1-n1c(C)nc(Cl)c1C(O)c1ccc(F)cc1Cl (stereo not drawn) [compound 340] | 89* % | 100* % | 99* % | 96* %
